The text below walks through data of US7511034B2, “Dialkylhydroxybenzoic acid derivatives containing metal chelating groups and their therapeutic uses” (Samsung Electronics Co., Ltd., priority 2001, dated 2009).

The test system of series [1] is multilayer liposome (soybean phosphatidylcholine). Description: Inhibition of lipid peroxidation (liposome oxidation, TBA absorbance at 532 nm). The note with it: liposome oxidation initiated by FeCl2, 37° C., 15 minutes; read-out: Inhibitor Concentration (IC50). The format is biochemical. The procedure: The compounds of the present invention were tested for antioxidizing effect in terms of the repression of the radical chain reaction of a multilayer liposome.
The liposome was prepared as followings: 30 mg of commercially available soybean phosphatidylcholine (PC, Sigma Chemical Co., U.S.A.) was dissolved in 1 mL of ethanol, and 200 μL of the ethanol/PC solution was added to 10 mL of 10 mM Tris buffer including 50 mM NaCl (pH 7.0) with stirring.
The ability of a compound to inhibit oxidation of the liposome was evaluated as followings: To 400 μL of the liposomes were added the test compound (in buffer or ethanol) and histidine-FeCl3 (167:33 μM final). Oxidation was initiated by the addition of FeCl2 (33 μM final prepared in nitrogen purged water). The mixtures was shaken at 37° C. for 15 minutes. Thereafter, tubes were treated with 1 mL of 0.67% thiobabituric acid (TBA):10% trichloroacetic acid (2:1, v/v) in 0.25 N HCl solution, containing 1.5% (v/v) t-butylhydroxytoluene (BHT) to terminate oxidation. The aliquots were heated to 100° C. for 20 minutes. After ice cooling, 1 mL of chloroform was added to 1 mL supernatant from tubes and tubes were centrifuged. The absorbances of the resulting supernatant were measured at 532 nm (see: Table below).

For series [2], the system named is ischemic neuronal degeneration. Briefly: Protection of cell damage by ischemia (in vivo), hippocampus Cresyl violet staining. More on the design: species or system Mongolian gerbils (Meriones unguiculatus). The note with it: gerbils, 60 mg/kg P.O., 4 days reperfusion; for protective effect: 5 min carotid occlusion, pre-treated groups. The method, then: Male Mongolian gerbils (Meriones unguiculatus) weighing 80-88 g were used in the present study. Each animal was medicated P.O. with vehicle, Ebselen or various test compounds (60 mg/kg in 10% DMSO), after 30 minutes ischemic injury, respectively. 20 animals were allotted into every group. The animals were placed under general anesthesia with a mixture of 2.5% isoflurane in 33% oxygen and 67% nitrous oxide. A midline ventral incision was made in the neck. Both common carotid arteries were isolated, freed of nerve fibers, and occluded using nontraumatic aneurysm clips. Complete interruption of blood flow was confirmed by observing the central artery in eyeballs using ophthalmoscope. After five minutes of occlusion, the aneurysm clips were removed from both common carotid arteries. Restoration of blood flow (reperfusion) was observed directly under the microscope. Sham-operated controls were subjected to the same surgical procedures except that common carotid arteries were not occluded. Body temperature was monitored and maintained at 37° C.±0.5° C. during surgery and during the immediate postoperative period until the animals recovered fully from anesthesia. At the designated reperfusion time (4 days), operated animals and sham animals were killed.
Animals were perfused transcardially with phosphate-buffered saline (PBS, pH 7.4) followed by 4% paraformaldehyde in 0.1 M phosphate buffer (pH 7.4) at 4 days (n=7) after surgery. The brains were removed, and postfixed in the same fixative for 4 hours. The brain tissues were cryoprotected by infiltration with 30% sucrose overnight. Cornoy fixed specimens were cut into 30 μm sections on a cryostat. The sections were sequentially stained by Cresyl violet dye.
Images of staining in the hippocampus of each animal were captured with an Applescanner. […] All data obtained from the quantitative data were analyzed using one-way ANOVA to determine statistical significance. Bonferroni's test was used for post-hoc comparisons. P values below 0.05 or 0.01 were considered statistically significant.

The nature of series [3]: Acute toxicity LD50 in rats. The following applies: rat, in vivo.
The next series deals with rats. The note with it: oral administration; cited from earlier work.
A further series has as its system mice. The following applies: oral administration; cited from earlier work.
For series [4] the following is noted: even in the presence of an excess of glutathione (GSH); cited from earlier work.

Turning to `Cc1cc(C(=O)NCc2ccccn2)cc(C)c1O` [Example 7, 4-Hydroxy-3,5-dimethyl-N-pyridine-2-yl methyl benzamide], in series [1], the IC50 was determined as 300 µM. Consider `CC(C)(C)c1cc(C(=O)Nc2nccs2)cc(C(C)(C)C)c1O` [Example 4, 3,5-Di-tert-butyl-4-hydroxy-N-thiazol-2-yl benzamide], for which the IC50 in series [1] was 9.69 µM. For the same compound, in series [2], the protective effect is given as 91% and the “neuroprotective effects against ischemic neuronal degeneration compared with Ebselen” value was “more neuroprotective effects against ischemic neuronal degeneration than those of Ebselen”. This compound also gave an LD50 in series [3] (ip, intraperitoneal administration in rats) of at least 800 mg/kg. This compound came in with an LD50 in series [3] (oral administration in rats) of at least 6950 mg/kg. Turning to `CC(C)(C)c1cc(C(=O)Nc2ccccn2)cc(C(C)(C)C)c1O` [Example 1, 3,5-Di-tert-butyl-4-hydroxy-N-pyridin-2-yl-benzamide], in series [1], the IC50 worked out at 11.9 µM. On the same count and under the same terms, in the case of `CCOC(=O)c1csc(NC(=O)c2cc(C(C)(C)C)c(O)c(C(C)(C)C)c2)n1` [Example 5, 2-(3,5-Di-tert-butyl-4-hydroxy-benzoylamino)-thiazole-4-carboxylic acid ethyl ester] it was 11.1 µM; in that of `Cc1c(C)c2c(c(C)c1O)CCC(C)(C(=O)O)O2` (stereo not shown) [Trolox, reference compound], 10.2 µM.

`CC(C)(C)c1cc(C(=O)NCc2ccccn2)cc(C(C)(C)C)c1O` [Example 2, 3,5-Di-tert-butyl-4-hydroxy-N-pyridin-2-yl methyl benzamide]: the IC50 in series [1] amounted to 12.7 µM. Turning to `O=c1c2ccccc2[se]n1-c1ccccc1` [Ebselen], in series [2], the protective effect was 69%. The LD50 in the series on rats and in the series with mice was ≥ 6,810 mg/kg throughout. The solubility in water result in series [4] is on record as “very little soluble in water”.

As for `CC(C)(C)c1cc(C(=O)Nc2ccc(O)c3ncccc23)cc(C(C)(C)C)c1O` [Example 3, 3,5-Di-tert-butyl-4-hydroxy-N-(8-hydroxyyquinolin-5-yl) benzamide], in series [1], the IC50 came to 7.79 µM. Consider `Cc1cc(C(=O)Nc2ccccn2)cc(C)c1O` [Example 6, 4-Hydroxy-3,5-dimethyl-N-pyridin-2-yl-benzamide], for which the IC50 in series [1] was determined as 122 µM.
